Numbers after ± are expanded uncertainties.
How the values were obtained:
[1] = xn = mol fraction of the nth substance listed; conditions: 101 kPa, Liquid, Vibrating tube method
[2] = excess molar enthalpy (molar enthalpy of mixing); xn = mol fraction of the nth substance listed; conditions: 291.15 K, 101 kPa, Liquid, Calvet calorimetry

CCCOC(C)=O [propyl ethanoate] + CCCCCCC
[1]
Conditions | mass density [kg/m3]
291.15 K, x1 = 0.0086 | 686.6 ± 0.3
291.15 K, x1 = 0.032 | 690.1 ± 0.3
291.15 K, x1 = 0.0864 | 698.2 ± 0.3
291.15 K, x1 = 0.1706 | 711.3 ± 0.3
291.15 K, x1 = 0.2573 | 725.7 ± 0.3
291.15 K, x1 = 0.3308 | 738.6 ± 0.3
291.15 K, x1 = 0.3974 | 750.9 ± 0.3
291.15 K, x1 = 0.4644 | 763.7 ± 0.3
291.15 K, x1 = 0.5398 | 778.9 ± 0.3
291.15 K, x1 = 0.6055 | 792.8 ± 0.3
291.15 K, x1 = 0.6723 | 807.4 ± 0.3
291.15 K, x1 = 0.7257 | 819.6 ± 0.3
291.15 K, x1 = 0.8 | 837.2 ± 0.3
291.15 K, x1 = 0.8457 | 848.5 ± 0.4
291.15 K, x1 = 0.9057 | 864 ± 0.4
291.15 K, x1 = 0.9708 | 881.6 ± 0.4
291.15 K, x1 = 1 | 889.6 ± 0.2
298.15 K, x1 = 0.0149 | 681.8 ± 0.3
298.15 K, x1 = 0.0308 | 684 ± 0.3
298.15 K, x1 = 0.0953 | 693.5 ± 0.3
298.15 K, x1 = 0.168 | 704.8 ± 0.3
298.15 K, x1 = 0.2358 | 715.8 ± 0.3
298.15 K, x1 = 0.3084 | 728.2 ± 0.3
298.15 K, x1 = 0.375 | 740.2 ± 0.3
298.15 K, x1 = 0.4386 | 752.1 ± 0.3
298.15 K, x1 = 0.5062 | 765.3 ± 0.3
298.15 K, x1 = 0.5643 | 777.2 ± 0.3
298.15 K, x1 = 0.6488 | 795.2 ± 0.3
298.15 K, x1 = 0.6684 | 799.5 ± 0.3
298.15 K, x1 = 0.7446 | 816.9 ± 0.3
298.15 K, x1 = 0.793 | 828.4 ± 0.3
298.15 K, x1 = 0.8688 | 847.3 ± 0.4
298.15 K, x1 = 0.91 | 858 ± 0.4
298.15 K, x1 = 0.9508 | 868.8 ± 0.4
298.15 K, x1 = 1 | 882.5 ± 0.2
318.15 K, x1 = 0.0291 | 666.1 ± 0.3
318.15 K, x1 = 0.0843 | 673.9 ± 0.3
318.15 K, x1 = 0.1595 | 685.1 ± 0.3
318.15 K, x1 = 0.23 | 696.3 ± 0.3
318.15 K, x1 = 0.2972 | 707.3 ± 0.3
318.15 K, x1 = 0.3638 | 718.8 ± 0.3
318.15 K, x1 = 0.4295 | 730.8 ± 0.3
318.15 K, x1 = 0.4902 | 742.3 ± 0.3
318.15 K, x1 = 0.553 | 754.6 ± 0.3
318.15 K, x1 = 0.6057 | 765.4 ± 0.3
318.15 K, x1 = 0.6734 | 779.8 ± 0.3
318.15 K, x1 = 0.726 | 791.4 ± 0.3
318.15 K, x1 = 0.7727 | 802.1 ± 0.3
318.15 K, x1 = 0.7949 | 807.7 ± 0.3
318.15 K, x1 = 0.8645 | 824.4 ± 0.3
318.15 K, x1 = 0.9242 | 839.3 ± 0.4
318.15 K, x1 = 1 | 859.8 ± 0.2
328.15 K, x1 = 0.0373 | 658.5 ± 0.3
328.15 K, x1 = 0.0866 | 665.4 ± 0.3
328.15 K, x1 = 0.1645 | 676.8 ± 0.3
328.15 K, x1 = 0.2401 | 688.6 ± 0.3
328.15 K, x1 = 0.3096 | 700 ± 0.3
328.15 K, x1 = 0.3783 | 711.8 ± 0.3
328.15 K, x1 = 0.4478 | 724.3 ± 0.3
328.15 K, x1 = 0.5142 | 736.8 ± 0.3
328.15 K, x1 = 0.5756 | 748.9 ± 0.3
328.15 K, x1 = 0.6377 | 761.7 ± 0.3
328.15 K, x1 = 0.6884 | 772.5 ± 0.3
328.15 K, x1 = 0.756 | 787.5 ± 0.3
328.15 K, x1 = 0.8074 | 799.5 ± 0.3
328.15 K, x1 = 0.856 | 811.2 ± 0.3
328.15 K, x1 = 0.9097 | 824.7 ± 0.4
328.15 K, x1 = 0.9638 | 838.7 ± 0.4
328.15 K, x1 = 1 | 848.3 ± 0.2

[2]
Conditions | excess molar enthalpy [kcal/mol]
x1 = 0.0996 | 0.104 ± 0.00143
x1 = 0.2001 | 0.181 ± 0.00191
x1 = 0.2956 | 0.2392 ± 0.00215
x1 = 0.3852 | 0.2725 ± 0.00239
x1 = 0.4642 | 0.2849 ± 0.00239
x1 = 0.5309 | 0.2856 ± 0.00239
x1 = 0.588 | 0.2746 ± 0.00239
x1 = 0.638 | 0.2565 ± 0.00215
x1 = 0.656 | 0.25 ± 0.00215
x1 = 0.7113 | 0.2266 ± 0.00215
x1 = 0.7717 | 0.1936 ± 0.00191
x1 = 0.8326 | 0.153 ± 0.00167
x1 = 0.8942 | 0.104 ± 0.00167
x1 = 0.9501 | 0.054 ± 0.00143
